Like-named read-outs stand apart in the source and are kept apart here.
Target: T1, human CB2R (Homo sapiens, UniProt P34972)
T1 construct: host or cells: CHO cells
Assay: CB2R mediated modulation of cAMP synthesis (forskolin-stimulated cAMP, CHO cells expressing human CB2R)
Format: cell-based
Protocol: B. CB2R Mediated Modulation of cAMP Synthesis:
Compounds of the invention were evaluated for their CB2 agonist or inverse agonistic activity in accordance with the following experimental method.
CHO cells expressing human CB2R (Euroscreen) were plated at a density of 5000 cells per well in 384 well plates and incubated overnight at 37° C. After removing the media, the cells were treated with test compounds diluted in stimulation buffer containing 1 mM IBMX, 0.25% BSA and 10 uM Forskolin. The assay was incubated for 30 minutes at 37° C. Cells were lysed and the cAMP concentration was measured using DiscoverX-XS cAMP kit, following the manufacturer's protocol. In this setting, agonists will decrease forskolin induced production of cAMP while inverse agonists will further increase forskolin induced production of cAMP. EC50 of agonists were calculated as follows. The maximal amount of cAMP produced by forskolin compared to the level of cAMP inhibited by 1 uM CP55940 is defined as 100%. […] Data was analyzed using a four-parameter logistic model. (Model 205 of XLfit 4.0).

[1] = agonist EC50, inhibition of forskolin-stimulated cAMP synthesis, CHO cells expressing human CB2R, mean, read-out: CB2 CAMP @ EC50 nM (mean)

T1 sequence (P34972 whole entry): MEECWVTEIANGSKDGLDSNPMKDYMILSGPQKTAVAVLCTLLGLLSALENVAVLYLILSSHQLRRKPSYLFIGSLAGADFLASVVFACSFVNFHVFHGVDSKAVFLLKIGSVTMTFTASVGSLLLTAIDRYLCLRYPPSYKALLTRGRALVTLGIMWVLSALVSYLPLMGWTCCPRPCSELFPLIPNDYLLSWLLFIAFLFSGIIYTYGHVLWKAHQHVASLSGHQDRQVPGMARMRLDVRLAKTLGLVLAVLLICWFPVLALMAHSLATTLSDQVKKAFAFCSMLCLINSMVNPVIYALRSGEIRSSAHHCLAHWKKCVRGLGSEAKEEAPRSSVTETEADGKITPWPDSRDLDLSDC

| Compound | EC50 [1] [nM] | EC50 [nM] |
| --- | --- | --- |
| O=C(Nc1nc(-c2ccc(F)c(F)c2)cs1)[C@@H]1CCCCN1C(=O)N1CCS(=O)(=O)CC1 [(S)-1-(1,1-Dioxo-1λ^6-thiomorpholine-4-carbonyl)-piperidine-2-carboxylic acid [4-(3,4-difluoro-phenyl)-thiazol-2-yl]-amide] | 26 |  |
| CC(C)(C)c1cc(NC(=O)[C@@H]2CCCCN2C(=O)C2CCS(=O)(=O)C2)no1 (stereo partly drawn) [(S)-1-(1,1-Dioxo-tetrahydro-1λ^6-thiophene-3-carbonyl)-piperidine-2-carboxylic acid (5-tert-butyl-isoxazol-3-yl)-amide] |  | 17 |
| CCn1nc(NC(=O)[C@@H]2CCCCN2CC2CCOCC2)nc1-c1ccccc1 [(S)-1-(Tetrahydro-pyran-4-ylmethyl)-piperidine-2-carboxylic acid (1-ethyl-5-phenyl-1H-1,2,4-triazol-3-yl)-amide] | 8.6 |  |
| O=C(Nc1nc(C2CCCCC2)cs1)[C@@H]1CCCCN1CC1CCOCC1 [(S)-1-(Tetrahydro-pyran-4-ylmethyl)-piperidine-2-carboxylic acid (4-cyclohexyl-thiazol-2-yl)-amide] | 9 |  |
| CC(C)(C)c1nnc(NC(=O)[C@@H]2CCCCN2C2CC2)s1 [(S)-1-Cyclopropyl-piperidine-2-carboxylic acid (5-tert-butyl-1,3,4-thiadiazol-2-yl)-amide] | 485 |  |
| CC(C)(C)c1cc(NC(=O)[C@@H]2CCCCCN2c2ccc(Cl)cc2)no1 [(S)-1-(4-Chloro-phenyl)-azepane-2-carboxylic acid (5-tert-butyl-isoxazol-3-yl)-amide] |  | 0.4 |
| O=C(Nc1ccc(F)c(C(F)(F)F)c1)[C@@H]1CCCCN1CC1CCOCC1 [(S)-1-(Tetrahydro-pyran-4-ylmethyl)-piperidine-2-carboxylic acid (4-fluoro-3-trifluoromethyl-phenyl)-amide] |  | 26 |
| O=C(Nc1cc(C2CCCCC2)no1)[C@@H]1CCCCN1C(=O)N1CCS(=O)(=O)CC1 [(S)-1-(1,1-Dioxo-1λ^6-thiomorpholine-4-carbonyl)-piperidine-2-carboxylic acid (3-cyclohexyl-isoxazol-5-yl)-amide] |  | 59 |
| O=C(Nc1ccc(C(F)(F)F)c(F)c1)[C@@H]1CCCCN1CC1CCOCC1 [(S)-1-(Tetrahydro-pyran-4-ylmethyl)-piperidine-2-carboxylic acid (3-fluoro-4-trifluoromethyl-phenyl)-amide] | 1.8 |  |
| CC(C)(C)c1cc(NC(=O)[C@H]2CCCN(C(=O)C3CCC(F)(F)CC3)C2)no1 [(S)-1-(4,4-Difluoro-cyclohexanecarbonyl)-piperidine-3-carboxylic acid (5-tert-butyl-isoxazol-3-yl)-amide] |  | 119 |
| O=C(Nc1nc2cc(F)c(F)cc2s1)[C@@H]1CCCCN1C(=O)N1CCS(=O)(=O)CC1 [(S)-1-(1,1-Dioxo-1λ^6-thiomorpholine-4-carbonyl)-piperidine-2-carboxylic acid (5,6-difluoro-benzothiazol-2-yl)-amide] | 448 |  |
| CC(C)(C)c1cc(NC(=O)[C@@H]2CCCCN2C(=O)CN2CCOCC2)no1 [(S)-1-(2-Morpholin-4-yl-acetyl)-piperidine-2-carboxylic acid (5-tert-butyl-isoxazol-3-yl)-amide] | 188 |  |
| O=C(Nc1nc2cc(F)ccc2s1)[C@@H]1CCCCN1C(=O)N1CCS(=O)(=O)CC1 [(S)-1-(1,1-Dioxo-1λ^6-thiomorpholine-4-carbonyl)-piperidine-2-carboxylic acid (5-fluoro-benzothiazol-2-yl)-amide] |  | 56 |
| CC(C)(C)c1csc(NC(=O)[C@@H]2CCCCN2CC2CCOCC2)n1 [(S)-1-(Tetrahydro-pyran-4-ylmethyl)-piperidine-2-carboxylic acid (4-tert-butyl-thiazol-2-yl)-amide] |  | 13 |
| CCc1sc(NC(=O)[C@@H]2CCCCN2C(=O)OC(C)(C)C)nc1-c1ccccc1 [(S)-2-(5-Ethyl-4-phenyl-thiazol-2-ylcarbamoyl)-piperidine-1-carboxylic acid tert-butyl ester] | 180 |  |

Reference: patent publication US8889670B2, “Heterocyclic compounds which modulate the CB2 receptor” (Boehringer Ingelheim International GmbH, priority 2009, dated 2014)
